Source: the supplement of paper PMC11208160

Experiment: recombinant UMI read abundance after kanamycin selection (control-corrected) (log10(CPM+1)); higher = more efficient recombination; extreme values may be limits of the assay; sequences stand for … in AGTGCAGAGAAAATCGGCCAGTTTTCTCTGCCTGCAGTCCGCATGCCGTGGGACCCCTTGGGTTCTAACCTGTTGCCTAGATTTATGCAGCGGACTGCCTTTCTCCCAAAGTGATAAACCGG…AGGTTGGTTTCACT; site = the 11-nt donor
Procedure, shortened: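 In a pooled Escherichia coli screen for the IS621 bridge recombinase, donor and donor-binding-loop pairs were each placed with a 12-nt UMI on a plasmid bearing a promoterless kanamycin gene. This library was co-electroporated with a target plasmid encoding a fixed target and T7-inducible recombinase, and cells were plated either on IPTG (0.07 mM) plus kanamycin or without selection, in two replicates each. Recombinant UMIs were PCR-amplified across the donor–target junction and sequenced, and counts were converted to CPM, averaged over replicates, scaled by control-derived factors and reported as log10(CPM+1).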
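Also: IS621 bridge recombinase in Escherichia coli cells against a fixed T5 target plasmid.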

Sequence | recombinant UMI read abundance (log10)
CAGAAGACATGGACCGGTTTTCCCGGTAATCCGTATTTGCA (site CAGAAGACTTG) | 3.09
GCAGGTACATGGACCGGTTTTCCCGGTAATCCGTATTTGAC (site GCAGGTACTGT) | 1.91
CGTGTTACATGGACCGGTTTTCCCGGTAATCCGTATTTGAT (site CGTGTTACTAT) | 0.962
TCATACGCATGGACCGGTTTTCCCGGTAATCCGTATTTGCA (site TCATACACTTG) | 1.03
TGTTACCCATGGACCGGTTTTCCCGGTAATCCGTATTTGTA (site TGTTTCCCTTA) | 0
ATTGCCACATGGACCGGTTTTCCCGGTAATCCGTATTTGCC (site ATTGCCACTGG) | 1.95
CCCTAGCCATGGACCGGTTTTCCCGGTAATCCGTATTTGCG (site CCCTAGCCTAG) | 0
CATTCCTCATGGACCGGTTTTCCCGGTAATCCGTATTTGCC (site CACTCCTCTGG) | 1.09
TGTCCGGCATGGACCGGTTTTCCCGGTAATCCGTATTTGGC (site TGGCCGGCTGC) | 0
AGAAAGGCATGGACCGGTTTTCCCGGTAATCCGTATTTGCT (site AGCAAGGCTAG) | 0
CTAGTTTCATGGACCGGTTTTCCCGGTAATCCGTATTTGAC (site CTAGTTTCTGT) | 2.05
AGCCTATCATGGACCGGTTTTCCCGGTAATCCGTATTTGAC (site AGCCTGTCTGT) | 0
TCATACGCATGGACCGGTTTTCCCGGTAATCCGTATTTGCA (site TCATACGCTTG) | 2.25
TAGGATGCATGGACCGGTTTTCCCGGTAATCCGTATTTGGC (site TAGGATGCTGC) | 3.08
GATTATTCATGGACCGGTTTTCCCGGTAATCCGTATTTGCT (site GATTATCCTAG) | 0
GTGCTACCATGGACCGGTTTTCCCGGTAATCCGTATTTGCT (site ATGCTACCTAG) | 0
ACCCAAGCATGGACCGGTTTTCCCGGTAATCCGTATTTGAG (site AACCAAGCTCT) | 0.712
ACGAAGACATGGACCGGTTTTCCCGGTAATCCGTATTTGCA (site AGGAAGACTTG) | 1.81
ACGGTATCATGGACCGGTTTTCCCGGTAATCCGTATTTGCA (site ACTGTATCTTG) | 2.32
CCCATCTCATGGACCGGTTTTCCCGGTAATCCGTATTTGCT (site CCCATCTCTAG) | 1.63
GAGCTAACATGGACCGGTTTTCCCGGTAATCCGTATTTGAT (site GAGCTCACTAT) | 0.0205
GGGAAGCCATGGACCGGTTTTCCCGGTAATCCGTATTTGTT (site CGGAATCCTAA) | 0
CTGCTACCATGGACCGGTTTTCCCGGTAATCCGTATTTGCT (site CTTCTACCTAG) | 0
ACAGTATCATGGACCGGTTTTCCCGGTAATCCGTATTTGAA (site ACAGTATCTTG) | 0.829
AGGTAGGCATGGACCGGTTTTCCCGGTAATCCGTATTTGGC (site ACGTAGGCTGC) | 1.87

Sequence | recombinant UMI read abundance (log10)
GCCAACTCATGGACCGGTTTTCCCGGTAATCCGTATTTGCG (site GCCAACTCTCG) | 1.98
AACGCCGCATGGACCGGTTTTCCCGGTAATCCGTATTTGAG (site AACGCCGCTCT) | 0.916
AGTGGGACATGGACCGGTTTTCCCGGTAATCCGTATTTGGC (site AGTGGGACTGC) | 2.85
GTGCTGCCATGGACCGGTTTTCCCGGTAATCCGTATTTGTG (site GTGCTGCCTCA) | 0.251
TAGAATACATGGACCGGTTTTCCCGGTAATCCGTATTTGTA (site TAGAATACTTT) | 0.208
CCGGGTGCATGGACCGGTTTTCCCGGTAATCCGTATTTGAT (site CCAGGTGCTAT) | 1.63
CAAGCACCATGGACCGGTTTTCCCGGTAATCCGTATTTGCT (site CAAGCAGCTAG) | 0.0135
CACTTCGCATGGACCGGTTTTCCCGGTAATCCGTATTTGGA (site CACTTTGCTTC) | 0.00357
CAAGTCTCATGGACCGGTTTTCCCGGTAATCCGTATTTGGG (site CAAGTCACTCC) | 0.0252
TGAAAGGCATGGACCGGTTTTCCCGGTAATCCGTATTTGCT (site CGAAAGGCTAG) | 0.708
CTGTAAACATGGACCGGTTTTCCCGGTAATCCGTATTTGCA (site CTGGAAACTTG) | 0
TGTGCCACATGGACCGGTTTTCCCGGTAATCCGTATTTGTT (site TGTGCCACTAA) | 0.0457
CAGTAACCATGGACCGGTTTTCCCGGTAATCCGTATTTGGA (site CAGTAACCTTC) | 0.00404
ACTCCGACATGGACCGGTTTTCCCGGTAATCCGTATTTGGC (site ACTCCGACTGC) | 1.98
AATGTGACATGGACCGGTTTTCCCGGTAATCCGTATTTGAC (site AATGTGGCTGT) | 1.01
TGCAGTGCATGGACCGGTTTTCCCGGTAATCCGTATTTGTT (site TGCAGTGCTAA) | 0.416
ATATATACATGGACCGGTTTTCCCGGTAATCCGTATTTGAC (site ATGTATACTGT) | 1.62
ACCGTAACATGGACCGGTTTTCCCGGTAATCCGTATTTGCA (site ACCGTAACTTG) | 2.34
CCATCAGCATGGACCGGTTTTCCCGGTAATCCGTATTTGCT (site CGATCATCTAG) | 0.145
GGCCCGACATGGACCGGTTTTCCCGGTAATCCGTATTTGCT (site GGCCCGACTAG) | 1.49
TATTTGGCATGGACCGGTTTTCCCGGTAATCCGTATTTGTG (site CATTTGGCTCA) | 0.0142
ACTAGAACATGGACCGGTTTTCCCGGTAATCCGTATTTGAG (site ACTAGAACTCA) | 0.00396
GGACCAACATGGACCGGTTTTCCCGGTAATCCGTATTTGTA (site GGTCCAACTTA) | 0.0428
TGACCATCATGGACCGGTTTTCCCGGTAATCCGTATTTGCT (site TGACCATCTAG) | 2.24
TGTACACCATGGACCGGTTTTCCCGGTAATCCGTATTTGAC (site TGTAAACCTGT) | 0

Sequence | recombinant UMI read abundance (log10)
GGACACGCATGGACCGGTTTTCCCGGTAATCCGTATTTGCT (site GGACACGCTAG) | 2.59
CATGTTCCATGGACCGGTTTTCCCGGTAATCCGTATTTGTG (site CATGTTCCTCA) | 0.0131
CCCGGGCCATGGACCGGTTTTCCCGGTAATCCGTATTTGCA (site CCCGGTCCTTG) | 0
TCAAGTCCATGGACCGGTTTTCCCGGTAATCCGTATTTGTA (site TCAAGTCCTTA) | 1.01
CATTTCCCATGGACCGGTTTTCCCGGTAATCCGTATTTGCT (site CAATTCCCTAG) | 0.464
CATTTCCCATGGACCGGTTTTCCCGGTAATCCGTATTTGCT (site CAGTTCCCTAG) | 0.0164
TGGCCGCCATGGACCGGTTTTCCCGGTAATCCGTATTTGGC (site TGGCCGACTGC) | 0.0204
CGTTAGGCATGGACCGGTTTTCCCGGTAATCCGTATTTGCT (site CGTTCGGCTAG) | 0.00474
GAGGAACCATGGACCGGTTTTCCCGGTAATCCGTATTTGTT (site GAGGAACCTAA) | 0
CCTTTTACATGGACCGGTTTTCCCGGTAATCCGTATTTGCT (site CCCTTTACTAG) | 0
CTATGATCATGGACCGGTTTTCCCGGTAATCCGTATTTGAC (site CTATGATCTGT) | 2.73
CGCTTGGCATGGACCGGTTTTCCCGGTAATCCGTATTTGCT (site CGATTGGCTAG) | 0
GTGGAGCCATGGACCGGTTTTCCCGGTAATCCGTATTTGTT (site GTGGAGCCTAA) | 0.012
TGCTAGGCATGGACCGGTTTTCCCGGTAATCCGTATTTGGT (site TGCTATGCTAC) | 0.00951
CTCTCCTCATGGACCGGTTTTCCCGGTAATCCGTATTTGCC (site CCCTCCTCTGG) | 2.6
AGGACTACATGGACCGGTTTTCCCGGTAATCCGTATTTGAA (site AGGACTACTGT) | 0.477
AGCCTACCATGGACCGGTTTTCCCGGTAATCCGTATTTGTT (site AGCCTAGCTAA) | 0.00248
GTATGCACATGGACCGGTTTTCCCGGTAATCCGTATTTGTA (site GTATGCACTTT) | 0.44
GATTCACCATGGACCGGTTTTCCCGGTAATCCGTATTTGCG (site GATTCACCTCG) | 0.00637
CACCCCTCATGGACCGGTTTTCCCGGTAATCCGTATTTGCC (site CACGCCTCTGG) | 0
GACAATCCATGGACCGGTTTTCCCGGTAATCCGTATTTGGT (site GACAAACCTAC) | 0
TTTGCGGCATGGACCGGTTTTCCCGGTAATCCGTATTTGGT (site TTTGCGGCTAG) | 0.0123
TGTTGCCCATGGACCGGTTTTCCCGGTAATCCGTATTTGTA (site TGTTTCCCTTA) | 0.0108
AGAAAGGCATGGACCGGTTTTCCCGGTAATCCGTATTTGCT (site AGAAAGGCTGG) | 0.262
CCGTTAGCATGGACCGGTTTTCCCGGTAATCCGTATTTGAG (site CCGTTAGCTCG) | 0.00749
